pIC50: −log10 of the molar value.

Results on 15 compounds are retold here after patent EP4038059B1, “SUBSTITUTED CARBAZOLE COMPOUNDS” (Bristol-Myers Squibb Company, priority 2019, dated 2021).

Holding throughout (format): cell-based
In assay [1] the target is T1, human TLR7 (Homo sapiens, UniProt Q9NYK1).
T1 construct: host or cells: HEK-Blue cells
T1 sequence (Q9NYK1 27-1049): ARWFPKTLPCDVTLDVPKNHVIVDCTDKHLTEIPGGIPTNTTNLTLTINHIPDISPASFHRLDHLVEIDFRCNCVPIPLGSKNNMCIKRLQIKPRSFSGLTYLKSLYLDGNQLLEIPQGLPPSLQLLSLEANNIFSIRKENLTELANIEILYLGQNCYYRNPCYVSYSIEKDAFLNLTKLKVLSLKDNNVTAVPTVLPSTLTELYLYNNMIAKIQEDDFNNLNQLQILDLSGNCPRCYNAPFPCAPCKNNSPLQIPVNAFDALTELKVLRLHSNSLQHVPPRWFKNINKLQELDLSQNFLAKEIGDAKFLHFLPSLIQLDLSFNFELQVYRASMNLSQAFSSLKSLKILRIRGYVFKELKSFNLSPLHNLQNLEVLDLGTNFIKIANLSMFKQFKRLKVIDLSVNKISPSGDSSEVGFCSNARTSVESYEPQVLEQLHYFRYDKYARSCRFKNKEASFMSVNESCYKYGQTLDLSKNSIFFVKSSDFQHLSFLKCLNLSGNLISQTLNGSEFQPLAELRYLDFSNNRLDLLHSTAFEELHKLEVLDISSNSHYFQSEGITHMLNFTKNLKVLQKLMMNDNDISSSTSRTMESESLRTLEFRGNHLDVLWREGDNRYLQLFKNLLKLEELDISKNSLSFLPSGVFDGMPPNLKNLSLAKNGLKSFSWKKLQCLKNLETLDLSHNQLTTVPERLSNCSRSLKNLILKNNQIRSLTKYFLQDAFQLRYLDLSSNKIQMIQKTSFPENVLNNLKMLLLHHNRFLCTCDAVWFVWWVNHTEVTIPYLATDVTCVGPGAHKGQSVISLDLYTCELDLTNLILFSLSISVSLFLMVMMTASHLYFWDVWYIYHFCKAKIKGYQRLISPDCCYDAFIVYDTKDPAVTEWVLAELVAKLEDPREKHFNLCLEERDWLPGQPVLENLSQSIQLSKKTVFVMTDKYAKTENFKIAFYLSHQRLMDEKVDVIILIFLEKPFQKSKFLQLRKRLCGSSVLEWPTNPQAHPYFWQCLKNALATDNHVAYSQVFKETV
The assay can be described thus: TLR7 inhibition reporter assay (HEK-Blue SEAP). The following applies: HEK-Blue cells overexpressing human TLR7, stimulated with gardiquimod 7.5 µM, 22 h incubation. The protocol: (§1) HEK-Blue™-cells (Invivogen) overexpressing human TLR7, TLR8 or TLR9 receptors were used for screening inhibitors of these receptors using an inducible SEAP (secreted embryonic alkaline phosphatase) reporter gene under the control of the IFN-β minimal promoter fused to five NF-κB and AP-1-binding sites. Briefly, cells are seeded into Greiner 384 well plates (15000 cells per well for TLR7, 20,000 for TLR8 and 25,000 for TLR9) and then treated with test compounds in DMSO to yield a final dose response concentration range of 0.05 nM - 50 µM. After a 30 minute compound pre-treatment at room temperature, the cells are then stimulated with a TLR7 ligand (gardiquimod at a final concentration of 7.5 µM), TLR8 ligand (R848 at a final concentration of 15.9 µM) or TLR9 ligand (ODN2006 at a final concentration of 5 nM) to activate NF-κB and AP-1 which induce the production of SEAP. After a 22 h incubation at 37°C, 5% CO2, SEAP levels are determined with the addition of HEK-Blue™ Detection reagent (Invivogen), a cell culture medium that allows for detection of SEAP, according to manufacturer's specifications. The percent inhibition is determined as the % reduction in the HEK-Blue signal present in wells treated with agonist plus DMSO alone compared to wells treated with a known inhibitor.
In general terms: Reporter assays use an easily measured gene product as a stand-in for the process of interest.

Assay [2] addresses T2, human TLR8 (Homo sapiens, UniProt Q9NR97).
T2 construct: host or cells: HEK-Blue cells
T2 sequence (Q9NR97 27-1041): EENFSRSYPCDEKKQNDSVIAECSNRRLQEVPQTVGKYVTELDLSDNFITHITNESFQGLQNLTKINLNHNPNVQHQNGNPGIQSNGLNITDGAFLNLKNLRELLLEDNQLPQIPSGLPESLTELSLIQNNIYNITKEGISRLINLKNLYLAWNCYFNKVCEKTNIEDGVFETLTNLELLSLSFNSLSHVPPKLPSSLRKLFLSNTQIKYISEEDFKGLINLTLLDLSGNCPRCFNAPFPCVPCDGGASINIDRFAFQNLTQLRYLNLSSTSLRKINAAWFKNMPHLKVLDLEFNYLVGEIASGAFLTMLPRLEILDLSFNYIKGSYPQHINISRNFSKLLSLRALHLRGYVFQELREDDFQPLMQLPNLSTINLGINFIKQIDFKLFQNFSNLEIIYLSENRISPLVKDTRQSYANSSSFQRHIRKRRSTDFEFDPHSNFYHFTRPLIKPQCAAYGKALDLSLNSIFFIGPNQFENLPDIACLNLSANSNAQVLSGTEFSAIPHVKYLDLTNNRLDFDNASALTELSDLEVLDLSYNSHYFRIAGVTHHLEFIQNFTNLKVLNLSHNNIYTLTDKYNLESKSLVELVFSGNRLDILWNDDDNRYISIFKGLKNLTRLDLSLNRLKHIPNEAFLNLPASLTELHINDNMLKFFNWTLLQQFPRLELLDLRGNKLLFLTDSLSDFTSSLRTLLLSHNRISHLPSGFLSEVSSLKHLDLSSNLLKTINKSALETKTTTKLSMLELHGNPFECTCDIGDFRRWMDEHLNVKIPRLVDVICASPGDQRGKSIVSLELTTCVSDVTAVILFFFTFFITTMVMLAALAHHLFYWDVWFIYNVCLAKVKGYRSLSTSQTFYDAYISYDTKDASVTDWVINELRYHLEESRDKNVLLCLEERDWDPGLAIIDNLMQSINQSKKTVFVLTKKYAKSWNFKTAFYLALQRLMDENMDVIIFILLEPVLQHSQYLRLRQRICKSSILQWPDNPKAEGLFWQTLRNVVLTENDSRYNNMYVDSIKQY
The assay can be described thus: TLR8 inhibition reporter assay (HEK-Blue SEAP). Conditions: HEK-Blue cells overexpressing human TLR8, stimulated with R848 15.9 µM, 22 h incubation. The protocol: as §1

In assay [3] the target is T3, human TLR9 (Homo sapiens, UniProt Q9NR96).
T3 construct: host or cells: HEK-Blue cells
T3 sequence (Q9NR96 26-1032): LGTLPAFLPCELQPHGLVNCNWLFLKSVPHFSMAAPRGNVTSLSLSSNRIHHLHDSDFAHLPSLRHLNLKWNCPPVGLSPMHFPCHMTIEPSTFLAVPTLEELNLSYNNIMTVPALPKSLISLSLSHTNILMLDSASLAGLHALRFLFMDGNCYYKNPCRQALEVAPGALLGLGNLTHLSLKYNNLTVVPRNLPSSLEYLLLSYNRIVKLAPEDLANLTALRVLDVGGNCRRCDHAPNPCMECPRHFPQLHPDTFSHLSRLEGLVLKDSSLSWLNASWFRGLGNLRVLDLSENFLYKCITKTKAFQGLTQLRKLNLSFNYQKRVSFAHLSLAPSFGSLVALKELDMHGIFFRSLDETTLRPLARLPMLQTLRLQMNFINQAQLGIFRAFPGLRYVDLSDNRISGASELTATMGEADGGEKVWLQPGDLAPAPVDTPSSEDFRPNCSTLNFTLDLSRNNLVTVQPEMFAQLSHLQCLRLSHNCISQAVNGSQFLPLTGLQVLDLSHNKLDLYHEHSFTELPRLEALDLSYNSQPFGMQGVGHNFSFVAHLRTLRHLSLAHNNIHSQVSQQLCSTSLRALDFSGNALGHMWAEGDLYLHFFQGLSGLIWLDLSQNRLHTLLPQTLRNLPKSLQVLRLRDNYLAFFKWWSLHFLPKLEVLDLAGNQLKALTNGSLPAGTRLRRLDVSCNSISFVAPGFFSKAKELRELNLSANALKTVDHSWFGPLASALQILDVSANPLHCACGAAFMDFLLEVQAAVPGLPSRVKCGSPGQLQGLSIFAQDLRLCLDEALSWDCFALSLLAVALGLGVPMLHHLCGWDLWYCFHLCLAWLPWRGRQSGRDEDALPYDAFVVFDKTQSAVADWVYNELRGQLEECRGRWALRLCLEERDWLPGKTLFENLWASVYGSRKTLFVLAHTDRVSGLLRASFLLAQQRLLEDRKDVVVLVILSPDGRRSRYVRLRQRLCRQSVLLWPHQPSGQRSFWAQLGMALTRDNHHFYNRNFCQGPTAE
The assay can be described thus: TLR9 inhibition reporter assay (HEK-Blue SEAP). Conditions: HEK-Blue cells overexpressing human TLR9, stimulated with ODN2006 5 nM, 22 h incubation. The protocol:
as §1

Consider `Cc1noc(C)c1-c1ccc2c(c1)[nH]c1ccc(C3CCNCC3)cc12` [Example 1, 3,5-dimethyl-4-(6-(piperidin-4-yl)-9H-carbazol-2-yl)isoxazole], for which the pIC50 was 6.19 in assay [1], 6.68 in assay [2] and 5.97 in assay [3].

`Cc1cc(-c2ccc3c(c2)[nH]c2ccc(C4CCNCC4)cc23)cc(C)n1` [Example 2, 2-(2,6-Dimethylpyridin-4-yl)-6-(piperidin-4-yl)-9H-carbazole]: the negative-log IC50 (pIC50) in assay [1] is 7.66; in assay [2], 6.99; in assay [3], 7.28.

As to `Cc1cc(-c2ccc3c(c2)[nH]c2ccc(C4CCNCC4)cc23)cn2ncnc12` [Example 3, 2-(8-methyl-[1,2,4]triazolo[1,5-a]pyridin-6-yl)-6-(piperidin-4-yl)-9H-carbazole], the pIC50 in assay [1] is 6.96; in assay [2] it was 6.45; in assay [3], 6.18.

As to `c1cncc(-c2ccc3c(c2)[nH]c2ccc(C4CCNCC4)cc23)c1` [Example 4, 6-(piperidin-4-yl)-2-(pyridin-3-yl)-9H-carbazole], the pIC50 in assay [1] was 5.83; in assay [2], 5.74; in assay [3] it was 6.27.

As to `Cc1c(-c2ccc3c(c2)[nH]c2ccc(C4CCNCC4)cc23)cn(C)c(=O)c1C` [Example 5, 1,3,4-trimethyl-5-(6-(piperidin-4-yl)-9H-carbazol-2-yl)pyridin-2(1H)-one], the pIC50 in assay [1] is 7.80; in assay [2] it was 7.54; in assay [3], 6.74.

For the compound `CN1CCC(c2ccc3c(c2)[nH]c2ccc(C4CCNCC4)cc23)CC1=O` (centres unmarked) [Example 6, 1-methyl-4-(6-(piperidin-4-yl)-9H-carbazol-2-yl)piperidin-2-one], the pIC50 was less than 5.51 in assay [1], less than 5.51 in assay [2] and 5.98 in assay [3].

Regarding `CC(=O)Nc1ccc2c(c1)[nH]c1ccc(C3CCNCC3)cc12` [Example 7, N-(6-(piperidin-4-yl)-9H-carbazol-2-yl)acetamide], the figures for the pIC50 in assay [1], in assay [2] and in assay [3] were less than 5.51, less than 5.51 and 5.98, respectively.

For `Cn1cc(-c2ccc3c(c2)[nH]c2ccc(C4CCNCC4)cc23)cn1` [Example 8, 2-(1-methyl-1H-pyrazol-4-yl)-6-(piperidin-4-yl)-9H-carbazole], the pIC50 was 5.86 in assay [1], 6.06 in assay [2] and 6.19 in assay [3].

As to `c1cc(-c2ccc3c(c2)[nH]c2ccc(C4CCNCC4)cc23)ccn1` [Example 9, 6-(Piperidin-4-yl)-2-(pyridin-4-yl)-9H-carbazole], the figures for the negative-log IC50 (pIC50) in assay [1], in assay [2] and in assay [3] were 6.42, 7.21 and 6.52, respectively.

Take `Cc1c(-c2cc(C)c3c(c2)[nH]c2ccc(C4CCNCC4)cc23)cn(C)c(=O)c1C` [Example 10, 1,3,4-trimethyl-5-(4-methyl-6-(piperidin-4-yl)-9H-carbazol-2-yl)pyridin-2(1H)-one]: the pIC50 is 8.66 in assay [1], 8.62 in assay [2] and 6.46 in assay [3].

For `Cc1cc(-c2cc(C)c3c(c2)[nH]c2ccc(C4CCNCC4)cc23)cc(C)n1` [Example 11], the values for the pIC50 in assay [1], in assay [2] and in assay [3] were 8.62, 7.68 and 7.40, respectively.

`COc1cc(-c2cc(C)c3c(c2)[nH]c2ccc(C4CCNCC4)cc23)cn2ncnc12` [Example 12]: the pIC50 in assay [1] was 8.85; in assay [2], 8.17; in assay [3], 6.82.

In the case of `Cc1cc(-c2cc(C)c3ncnn3c2)cc2[nH]c3ccc(C4CCNCC4)cc3c12` [Example 13], the pIC50 was 9.15 in assay [1], 8.17 in assay [2] and 6.46 in assay [3].

Take `Cc1cc2c(cc1-c1cc(C)c3ncnn3c1)[nH]c1ccc(C3CCNCC3)cc12` [Example 14, 3-methyl-2-(8-methyl-[1,2,4]triazolo[1,5-a]pyridin-6-yl)-6-(piperidin-4-yl)-9H-carbazole]: the results for the negative-log IC50 (pIC50) in assay [1], in assay [2] and in assay [3] were 8.92, 8.85 and 6.50, respectively.

On to `COc1cc(-c2cc3[nH]c4ccc(C5CN(C6CCOCC6)C5)cc4c3c(C)c2C)cn2ncnc12` [Example 37], for which the pIC50 in assay [2] was 8.89; in assay [3], 5.98.

A word on the pIC50: it is the IC50 on a negative log10 scale, so that one unit is a factor of ten. High values mean a low IC50, low ones a high IC50.
